Results reported in patent publication US7244743B2, “Non-peptidic BRS-3 agonists” (Solvay Pharmaceuticals GmbH, priority 2002, dated 2007).
Square brackets hold non-standard residues; d marks the D form. Peptide text beside a SMILES is read from it. * marks the point of attachment. NHPhenethyl = c1ccc(CCN*)cc1; PhAc = O=C(Cc1ccccc1)*

Key:
[1] = biological target: T1, human BRS-3 (subtype 3 of the human bombesin receptor) (Homo sapiens, UniProt P32247); assay: FLIPR test: agonistic activity on BRS-3 (Ca2+ fluorescence, Fluo4) in transfected CHO cells; assay type: cell-based; details: for EC50: CHO-K1 cells co-expressing human BRS-3 and human Gα16, 50% activation relative to maximum response of nonapeptide [D-Phe6,β-Ala11,Phe13,Nle14]Bn(6-14) (=100%)
T1 construct: expressed in transfected cells; host or cells: CHO-K1 cells, stably transfected with RD-HGA16 (human Gα16) and pcDNA3.1(-)-BRS-3; single-cell clone selected
T1 sequence (P32247 1-399): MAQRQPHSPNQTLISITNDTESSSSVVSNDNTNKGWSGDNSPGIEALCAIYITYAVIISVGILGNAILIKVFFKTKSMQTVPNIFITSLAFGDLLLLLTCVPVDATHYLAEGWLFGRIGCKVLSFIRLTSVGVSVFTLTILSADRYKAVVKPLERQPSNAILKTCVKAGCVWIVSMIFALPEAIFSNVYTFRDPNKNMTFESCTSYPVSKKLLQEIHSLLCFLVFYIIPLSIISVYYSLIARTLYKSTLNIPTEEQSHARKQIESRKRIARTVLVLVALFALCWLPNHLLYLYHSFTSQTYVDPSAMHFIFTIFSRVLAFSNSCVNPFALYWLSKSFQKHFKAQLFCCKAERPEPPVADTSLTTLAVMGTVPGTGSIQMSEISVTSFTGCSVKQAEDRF
Text: For this, CHO cells (=“Chinese hamster ovary cells”) initially were transfected in known manner with an expression vector for the subtype 3 of the human bombesin receptor, i.e. BRS-3.
The cDNA of the human BRS-3 (nucleotide sequence under GenBank Accession No. L08893) was excised from the plasmid vector pGEM4 (from Promega, USA) using the restriction endonuclease EcoRI and was subcloned into the expression vector pcDNA3.1(−) (from Invitrogen, USA). CHO-K1 cells, which were already stably transfected with the expression vector RD-HGA16, which bears the cDNA sequence of the human Gα16 protein (nucleotide sequence under GenBank Accession No. M63904), were placed in sample plates with 24 sample wells (“24-well plate”) and incubated overnight under sterile conditions in an air-humidified incubator at 37° C. and 5% CO2 in F-12 medium plus Glutamax-I (from GibcoBRL, cat. No. 31765), to which 10%-strength foetal calf serum (inactivated at 56° C. for 1 h, from GibcoBRL), 25 μg/ml gentamicin (from GibcoBRL) and 0.2 mg/ml hygromycin B (from GibcoBRL) had been added. The next day, the cells were transfected with the BRS-3 expression vector by adding, using the “Effectene Transfection Reagent” (from Qiagen), 12 μl of a solution containing 0.3 μg/μl DNA of the expression vector per sample well. One day after transfection, the culture medium was replaced by selection medium. For this, the transfected cells, which each simultaneously express BRS-3 and the human Gα16 protein, were cultivated under sterile conditions at 37° C. and 5% CO2 in F-12 medium plus Glutamax-I (from GibcoBRL, cat. No. 31765), to which 10%-strength foetal calf serum (inactivated at 56° C. for 1 h, from GibcoBRL), 25 μg/ml gentamicin (from GibcoBRL), 0.2 mg/ml hygromycin B (from GibcoBRL) and 0.5 mg/ml geneticin (from GibcoBRL) had been added. To optimize the cell test, the cells with the highest receptor expression rate were selected. For this, the transfected cells were diluted 1:30,000 with the selection medium described above and were placed in sample plates with 96 sample wells (“96-well plate”). The cells were incubated overnight at 37° C. and 5% CO2, then those sample wells which contained only an individual cell were selected. These cells were first started in sample plates with 24 sample wells (“24-well plate”) and then cultivated in Costar plastic flasks (first 25 ml and then 225 ml). The BRS-3 receptor expression of the respective individual cell clone was estimated by determination of the EC50 value of the synthetic nonapeptide [D-Phe^6,β-Ala^11,Phe^13,Nle^14]Bn(6-14) as ligand (for performance of the test see below). The transfected cells were stored at −80° C. in aliquots of 1.8 ml medium each with 10% dimethyl sulfoxide (=DMSO) (cell concentration 1×10^6 cells/ml). For cultivation, a frozen aliquot was heated to 37° C., transferred into a Costar plastic flask (225 ml) and diluted with 50 ml of the selection medium described above. The medium was first changed once after 30 minutes' incubation. On each following first to third day, the medium was removed, the adherent cells (40-95% confluence) were washed with PBS Dulbecco's (from GibcoBRL) and detached from the bottom of the flask by a 2-minute treatment with trypsin-EDTA solution (from GibcoBRL) at 37° C. If the cells were to be cultivated further, they were transferred into a new plastic flask with fresh medium. If experiments were to be carried out with the cells, the cells were transferred into Costar sample plates with 96 sample wells, a clear baseplate and cover (“Costar 96-well assay plates”, from Coming), once the cell concentration had been set to 1.2×10^4 cells/ml.
BRS-3 is coupled via G-proteins to the Ca^2+-signal transduction path of the CHO cell. If an agonist binds to the receptor, the phospholipase C is activated via the G-protein, and then in turn catalyses the synthesis of water-soluble inositol phosphates. […]

| Molecule | EC50 [1] [nM] | melting point [°C] | peptide concentration at which the maximum change in fluorescence had already been observed ([1]; reference dilution series on each plate, adopted as 100% value) [µM] |
| --- | --- | --- | --- |
| CC(NCc1ccc(Cl)cc1)C(=O)N[C@H](Cc1c[nH]c2ccccc12)C(=O)NCCc1ccccc1 (mixture of isomers) [Example 3, N1-phenethyl-(2R)-2-{1-[(4-chlorobenzyl)-amino]-ethylcarboxamido}-3-(1H-3-indolyl)-propanamide] | 4 | 107 to 110 |  |
| C[C@H](NC(=O)Cc1ccccc1)C(=O)N[C@H](Cc1c[nH]c2ccccc12)C(=O)NCCc1ccccc1 [Example 2, N1-phenethyl-(2R)-2-[(1S)-1-(benzylcarboxamido)-ethyl]-carboxamido-3-(1H-3-indolyl)-propanamide] (PhAc-Ala-[dW]-NHPhenethyl) | 2.1 | 205 to 207 |  |
| O=C(Cc1cccnc1)NNC(=O)N[C@H](Cc1c[nH]c2ccccc12)C(=O)NCCc1ccccc1 [Example 4, N1-phenethyl-(2R)-2-{N′-[2-(3-pyridyl)-ethanoyl]-hydrazino}-carboxamido-3-(1H-3-indolyl)-propanamide] | 1.4 | 116 to 120 |  |
| O=C(NNCc1ccc(Cl)cc1)N[C@H](Cc1c[nH]c2ccccc12)C(=O)NCCc1ccccc1 [Example 5, N1-phenethyl-(2R)-2-[N′-(4-chlorobenzyl)-hydrazino]-carboxamido-3-(1H-3-indolyl)-propanamide] | 6 | 75 to 80 |  |
| O=C(N/N=C/c1ccco1)N[C@H](Cc1c[nH]c2ccccc12)C(=O)NCCc1ccccc1 [Example 6, N1-phenethyl-(2R)-2-[N′-(furan-2-ylmethylene)-hydrazino]-carboxamido-3-(1H-3-indolyl)-propanamide] | 1.5 | 100 to 101 |  |
| O=C(CN1CCC(Cc2ccccc2)CC1)N[C@H](Cc1c[nH]c2ccccc12)C(=O)NCCc1ccccc1 [Example 7, N1-phenethyl-(2R)-2-[(4-benzylpiperidino)-methyl]-carboxamido-3-(1H-3-indolyl)-propanamide] | 30 | 73 to 75 |  |
| NC(=O)CCC(NC(=O)Cc1cc2ccccc2[nH]1)C(=O)NC(Cc1c[nH]c2ccccc12)C(=O)NCCc1ccccc1 (centres unmarked) [Example 15] | 57 |  |  |
| CC(NC(=O)Cc1cccnc1)C(=O)NC(Cc1c[nH]c2ccccc12)C(=O)NCCc1ccccc1 (centres unmarked) [Example 19] | 32 |  |  |
| O=C(CNCCc1ccccc1)NC(Cc1c[nH]c2ccccc12)C(=O)NCCc1ccccc1 (centres unmarked) [Example 24] | 17 |  |  |
| [D-Phe^6,β-Ala^11,Phe^13,Nle^14]Bn(6-14) [nonapeptide, reference compound] |  |  | ~16 |

More lines, now with the values ahead:

| EC50 [1] [nM] | melting point [°C] | peptide concentration at which the maximum change in fluorescence had already been observed ([1]; reference dilution series on each plate, adopted as 100% value) [µM] | Molecule |
| --- | --- | --- | --- |
| 21 |  |  | O=C(CNCc1ccccc1)NC(Cc1c[nH]c2ccccc12)C(=O)NCCc1ccccc1 (centres unmarked) [Example 21] |
| 2.9 |  |  | O=C(CNCc1ccc(Cl)cc1)NC(Cc1c[nH]c2ccccc12)C(=O)NCCc1ccccc1 (centres unmarked) [Example 22] |
| 21 |  |  | O=C(CNCc1cccnc1)NC(Cc1c[nH]c2ccccc12)C(=O)NCCc1ccccc1 (centres unmarked) [Example 23] |
| 25 |  |  | CC(NCCc1ccccc1)C(=O)NC(Cc1c[nH]c2ccccc12)C(=O)NCCc1ccccc1 (centres unmarked) [Example 26] |
| 3.1 |  |  | O=C(Cc1ccccc1)NNC(=O)NC(Cc1c[nH]c2ccccc12)C(=O)NCCc1ccccc1 (centres unmarked) [Example 27] |
| 0.19 |  |  | O=C(Cc1ccc(Cl)cc1)NNC(=O)NC(Cc1c[nH]c2ccccc12)C(=O)NCCc1ccccc1 (centres unmarked) [Example 28] |
| 2.2 |  |  | O=C(Cc1cc2ccccc2[nH]1)NNC(=O)NC(Cc1c[nH]c2ccccc12)C(=O)NCCc1ccccc1 (centres unmarked) [Example 30] |
